In patent publication US20130045948A1, “AZOCYCLIC INHIBITORS OF FATTY ACID AMIDE HYDROLASE” (E I DU PONT DE NEMOURS AND COMPANY, priority 2009, published 2013):

Tests used:
[1] = cited from earlier work
[2] = system: female Cr1:CD1(ICR) mice; experiment: Tail immersion assay in mice (analgesic potential, in combination with anandamide); conditions: for % MPE (percent of the maximum possible effect (test-baseline)/(10-baseline)) / Test Time / Baseline Time: mean; for Baseline Time: prior to administration of compounds, tail in water 52+/−1° C.; for analgesic effects at the rate tested (conclusion) / % of the treated animals exhibiting the maximum measured response time of 10 sec: 10 mg/kg i.p. plus anandamide 50 mg/kg
Experimental: Test substances were injected once by intraperitoneal (i.p.) route to female Cr1:CD1(ICR) mice. The tail immersion assay was conducted prior to administration of compounds to establish baseline values and again after administration of compounds.
Analgesia was evaluated in female mice by immersing approximately 3.5 cm of each tail into water that was maintained at 52+/−1° C. for a maximum of 10 seconds (sec). The length of time until the animal removed its tail from the water or made a significant tail movement was measured. If the response time was less than 5 sec, a second trial was conducted.
Based on the results of the preliminary study, the time interval between administration of the test substances and anandamide was established as 40 minutes. In addition, the time interval between administration of anandamide and conducting the tail immersion assay was established to be 40 minutes.
The formulations were made on the day of dosing and administered once by intraperitoneal route.

[3] = target: T1, recombinant human FAAH (MBP-ΔTM-FAAH) (Homo sapiens, UniProt O00519); experiment: FAAH assay, fluorogenic substrate D-AMC; type: biochemical; conditions: D-AMC 5 μM, pH 8.0, 37° C.
T1 construct: The region of the gene corresponding to amino acids 34 to 579 was cloned into pMAL-c4x; made in house; host or cells: E. coli T7 Express
T1 sequence (O00519 34-579): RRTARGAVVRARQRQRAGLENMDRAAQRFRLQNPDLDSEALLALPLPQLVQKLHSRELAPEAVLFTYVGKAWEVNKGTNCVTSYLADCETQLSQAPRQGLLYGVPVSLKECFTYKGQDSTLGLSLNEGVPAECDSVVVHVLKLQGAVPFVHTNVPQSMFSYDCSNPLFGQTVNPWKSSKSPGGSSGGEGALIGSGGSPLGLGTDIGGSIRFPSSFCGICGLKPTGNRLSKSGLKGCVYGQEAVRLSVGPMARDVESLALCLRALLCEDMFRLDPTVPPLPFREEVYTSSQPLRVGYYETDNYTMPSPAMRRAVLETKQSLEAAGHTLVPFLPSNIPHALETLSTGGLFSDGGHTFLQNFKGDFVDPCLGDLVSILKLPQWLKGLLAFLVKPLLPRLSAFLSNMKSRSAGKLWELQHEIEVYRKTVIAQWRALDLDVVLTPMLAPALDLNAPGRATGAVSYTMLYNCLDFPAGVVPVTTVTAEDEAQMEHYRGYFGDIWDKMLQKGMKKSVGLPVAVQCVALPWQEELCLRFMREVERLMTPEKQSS
Experimental: E. coli T7 Express cells, containing the FAAH constructs, were used for expression of protein by induction with IPTG (isopropyl-β-D-thiogalactopyranoside) (100 μM) overnight at room temperature in Lennox Broth with 0.2% glucose. After harvest, the cells were resuspended in 20 mM Hepes buffer (pH 7.4) containing 200 mM NaCl, 2 mM DTT (dithiothreitol). The cell suspension was lysed by sonication, and the cell debris removed by centrifugation. […] The enzyme was eluted using 15 mM maltose as per manufacturer's (New England BioLabs, Inc.) instruction. Fractions containing FAAH were concentrated and further purified using Sephacryl™ 5100 (HIPrep™ 26/60, GE Healthcare, Inc.) chromatography. […]
FAAH assay—Enzyme activity was measured using the fluorogenic substrate, decanoyl 7-amino-4-methylcoumarin (D-AMC) as described by Kage, K. L. et al. J. of Neuroscience Methods 2007, 161, 47-54. […] Reactions were carried out in black 96-well microplates (Costar, Inc) using a SpectraMax Gemini™ (Molecular Devices, Inc.) fluorescence plate reader in a reaction volume of 200 μL per well at 37° C. Reaction rates were monitored at an emission wavelength of 430 nm using an excitation wavelength of 351 nm over 30 to 40 minutes. Experimental compounds were initially evaluated at a single concentration of 2 μM.

[4] = anandamide 50 mg/kg i.p. alone (negative control), assay 40 minutes after
[5] = 10 mg/kg i.p., anandamide 50 mg/kg i.p. 40 minutes later, assay 40 minutes after anandamide
[6] = 10 mg/kg i.p., anandamide 50 mg/kg i.p. 40 minutes later, assay 40 minutes after anandamide, maximum 10 sec

Row | SMILES | causing hypothermia or analgesia ([1]; anandamide alone) | % MPE (percent of the maximum possible effect (test-baseline)/(10-baseline)) [2, 4] | Test Time [2, 4] | Baseline Time ([2]; maximum 10 sec) | analgesic effects at the rate tested (conclusion) [2] | % MPE (percent of the maximum possible effect (test-baseline)/(10-baseline)) [2, 5] | Test Time [2, 6] | % of the treated animals exhibiting the maximum measured response time of 10 sec [2] | IC50 [3] | analgesic effect ([1]; anandamide administered along with OL-135)
1 | CCCCC/C=C\C/C=C\C/C=C\C/C=C\CCCC(=O)NCCO [Anandamide, reference compound] | largely ineffective | 20.3% | 6.7 s | 6.9 s |  |  |  |  |  | 
2 | O=C(Nc1ccccc1)N1CCC(c2nc(C3=NOC(c4ccccc4)C3)cs2)CC1 (stereo not drawn) [Compound 1, 4-[4-(4,5-dihydro-5-phenyl-3-isoxazolyl)-2-thiazolyl]-N-phenyl-1-piperidinecarboxamide] |  |  |  | 3.5 s | no analgesic effects | 20.2% | 5.0 s |  |  | 
3 | O=C(Oc1ccccc1)N1CCC(c2nc(C3=NOC(c4ccccc4)C3)cs2)CC1 (stereo not drawn) [Compound 11, phenyl 4-[4-(4,5-dihydro-5-phenyl-3-isoxazolyl)-2-thiazolyl]-1-piperidinecarboxylate] |  |  |  | 5.8 s | analgesic effects | 100.0% | 10.0 s | 100% |  | 
4 | O=C(Nc1nccs1)N1CCC(c2nc(C3=NOC(c4ccccc4)C3)cs2)CC1 (stereo not drawn) [Compound 49] |  |  |  | 7.5 s | no analgesic effects | −4.0% | 6.4 s |  |  | 
5 | O=C(Oc1ccccc1)N1CCC(c2nc(C3=NOC4(CCCc5ccccc54)C3)cs2)CC1 (stereo not drawn) [Compound 52] |  |  |  |  |  |  |  |  | 29 nM | 
6 | O=C(Oc1ccccc1Cl)N1CCC(c2nc(C3=NOC(c4ccccc4)C3)cs2)CC1 (stereo not drawn) [Compound 61] |  |  |  | 6.0 s | analgesic effects | 86.9% | 9.4 s | 90% |  | 
7 | O=C(CCCCCCc1ccccc1)c1ncc(-c2ccccn2)o1 [OL-135, reference compound] |  |  |  | 4.1 s |  | 61.5% | 7.6 s |  |  | significantly elevated
